According to patent publication US20120264942A1, “METHOD FOR SCREENING OSTEOPONTIN INHIBITOR AND INHIBITOR OBTAINED FROM THE METHOD” (INNOPHARMASCREEN, INC., priority 2009, published 2012):

Legend:
osteoclast = test: Osteoclast differentiation inhibition, myeloplast-derived macrophage with hM-CSF and RANKL, TRAP staining (Example 4); assay type: cell-based, mice (C57BL/6J); settings: 10 mM; 30 ng/ml hM-CSF, 100 ng/ml RANKL; 4 days
Description: Myeloplasts collected from five-week mice (C57BL/6J) were added to 48-well plate and cultured in a differentiation medium [a-MEM (Invitrogen. co.), 10% (v/v) Fetal bovine serum (FBS), 100 units/ml penicillin, 100 μg/ml streptomycin] including 30 ng/ml of hM-CSF (R&D system Inc.) that is a macrophage differentiator for three days under the conditions of 37° C., 95% (v/v) air, and 5% (v/v) CO2 to be 4×10^4 cell/well so that the macrophase derived from the myeloplast was obtained. In this situation, in addition to the concentration of 30 ng/ml hM-CSF, mouse RANKL that is an osteoclast differentiator was expressed in E. coli; it was purely separated and purified; it was added in the concentration of 100 ng/ml; and then it was continuously cultured under the same conditions to induce the cell differentiation to the osteoclast. After culturing for 4 days, the cell was fixed with 3.7% formaldehyde for 15 minutes at room temperature; washed with distilled water twice; the staining solution made by mixing acetate, Fast Gargnet GBC base, naphtol AS-BI phosphate, […], and tartrate in the ratio as disclosed in the instructions of Acid Phosphatase, Leukocyte (TRAP) Kit™ (Sigma Co.) was added to be […]; and then reacted at 37° C. for 20 minutes to stain the differentiated osteoclast.

mouse osteoclast = test: Osteoclast differentiation inhibition, mouse osteoclast with M-CSF and RANKL (Example 5); assay type: cell-based; settings: M-CSF 30 ng/ml, RANKL 200 ng/ml
Description: For FIG. 6, the mouse osteoclast (2×10^4/well) was added to 48 well plate; M-CSF (30 ng/ml) and RANKL (200 ng/ml) were added at the same time; and then 10 mM of each of C01, CO2, and G10 that are an osteopontin inhibitor was treated to analysis the inhibition ability for differentiating to an osteoclast.

mouse skull calvaria = test: Mouse Calvaria Model, LPS-induced born destruction; assay type: in vivo; settings: Lipopolysaccharide 10 mg/kg to mouse skull; compound 10 mg/kg
Description: […] On 5 days, the mice calvaria were extracted; the cross-section of the calvaria was stained with H&E Staining to identify; and then the inhibition degree of the born destruction effect was analyzed using Image-pro Plus 4.5 (Media Cybernetics, Inc.).

| Compound | inhibition ability for differentiating to the osteoclast (osteoclast) | inhibition ability for differentiating to the osteoclast (mouse osteoclast) | effect on inhibiting the born destruction effect due to LPS in vivo (mouse skull calvaria) |
| --- | --- | --- | --- |
| O=C1C(O)=C(O)C(=O)c2c(O)c(Cl)cc(O)c21 [IPS-02002, 6-Chloro-2,3,5,8-tetrahydroxy-[1,4]naphthoquinon] | excellent inhibition ability | excellent inhibition ability |  |
| O=C1C(O)=C(O)C(=O)c2c(O)c(Cl)c(Cl)c(O)c21 [IPS-02001, 6,7-Dichloro-2,3,5,8-tetrahydroxy-[1,4]naphthoquinone] | excellent inhibition ability | excellent inhibition ability | has the effect on inhibiting the born destruction effect |
| O=C(O)C1CSC(c2ccccn2)N1 (stereo not shown) [IPS-02003, 2-Pyridin-2-yl-thiazolidine-4-carboxylic acid] | no inhibition ability | no inhibition ability |  |
